Active and inactive are the calls of the source. The calls are words filed in the database; no cut-off is given here.
How the values were obtained:
Plasmodium cynomolgi [1] = test: Antimalarial activity against Plasmodium cynomolgi infected in monkey assessed as curative activity without disease relapses until 90 days at 1.5 mg/kg, po by radical curative monkey test; type: functional, organism-based; set-up: dose 1.5 mg/kg
Plasmodium cynomolgi [2] = test: Antimalarial activity against Plasmodium cynomolgi infected in monkey assessed as relapses day at 0.5 mg/kg, po; type: functional
Plasmodium cynomolgi [3] = test: Antimalarial activity against Plasmodium cynomolgi infected in monkey assessed as curative activity without disease relapses until 90 days at 1 mg/kg, po by radical curative monkey test; type: functional, organism-based; set-up: dose 1 mg/kg
Plasmodium cynomolgi [4] = test: Antimalarial activity against Plasmodium cynomolgi infected in monkey assessed as relapses day at 0.25 mg/kg, po; type: functional
Plasmodium cynomolgi [5] = test: Antimalarial activity against Plasmodium cynomolgi infected in monkey assessed as relapses day at 10 mg/kg, po; type: functional
Plasmodium berghei [6] = test: Antimalarial activity against Plasmodium berghei infected in mouse at 320 to 640 mg/kg; type: functional, organism-based
Plasmodium cynomolgi [7] = test: Antimalarial activity against Plasmodium cynomolgi infected in monkey assessed as relapses day at 1 mg/kg, po; type: functional
Plasmodium cynomolgi [8] = test: Antimalarial activity against Plasmodium cynomolgi infected in monkey assessed as relapses day at 0.375 mg/kg, po; type: functional
Plasmodium cynomolgi [9] = test: Antimalarial activity against Plasmodium cynomolgi infected in monkey assessed as curative activity without disease relapses until 90 days at 0.375 mg/kg, po by radical curative monkey test; type: functional, organism-based; set-up: dose 0.375 mg/kg
Plasmodium cynomolgi [10] = test: Antimalarial activity against Plasmodium cynomolgi infected in monkey assessed as curative activity without disease relapses until 90 days at 0.75 mg/kg, po by radical curative monkey test; type: functional, organism-based; set-up: dose 0.75 mg/kg
Plasmodium berghei [11] = test: Antimalarial activity against Plasmodium berghei infected in mouse at 640 mg/kg; type: functional, organism-based; set-up: dose 640 mg/kg

SMILES | Time (Plasmodium cynomolgi [2]) [days] | Activity (Plasmodium cynomolgi [3]) | Time (Plasmodium cynomolgi [7]) [days] | other results
COc1cc(NC(C)CCCN)c2nc(OCc3ccccc3)ccc2c1 (stereo unspecified) | – | – | – | Activity (Plasmodium cynomolgi [1]): Active
COc1cc(NC(C)CCCN)c2nc(OCc3ccc(C(F)(F)F)cc3)ccc2c1.O=C(O)/C=C\C(=O)O (stereo unspecified) | 5 | Active | – | Time (Plasmodium cynomolgi [4]): 9 days
COc1cc(NC(C)CCCN)c2nc(SCc3ccc(Cl)cc3)ccc2c1.O=C(O)/C=C\C(=O)O (stereo unspecified) | 7 | – | – | Time (Plasmodium cynomolgi [5]): 7 days; Activity (Plasmodium berghei [6]): Active
COc1ccc(COc2ccc3cc(OC)cc(NC(C)CCCN)c3n2)cc1.O=C(O)/C=C\C(=O)O (stereo unspecified) | – | – | 7 | Time (Plasmodium cynomolgi [5]): 18 days
COc1cc(NC(C)CCCN)c2nc(OCc3ccc(Cl)cc3)ccc2c1.O=C(O)/C=C\C(=O)O (stereo unspecified) | – | – | 9 | –
COc1cc(NC(C)CCCN)c2ncccc2c1.O=P(O)(O)O.O=P(O)(O)O (stereo unspecified) [PRIMAQUINE PHOSPHATE] | 11 | – | – | Time (Plasmodium cynomolgi [8]): 11 days; Activity (Plasmodium cynomolgi [9]): inactive; Activity (Plasmodium cynomolgi [10]): Active
COc1cc(NC(C)CCCN)c2nc(SCc3ccccc3)ccc2c1.O=C(O)/C=C\C(=O)O (stereo unspecified) | 9 | – | 15 | –
COc1cc(NC(C)CCCN)c2nc(OCc3ccc(F)cc3)ccc2c1.O=C(O)/C=C\C(=O)O (stereo unspecified) | 91 | Active | – | Time (Plasmodium cynomolgi [4]): 5 days; Activity (Plasmodium berghei [11]): Active
COc1cc(NC(C)CCCN)c2nc(OCc3cccc(C(F)(F)F)c3)ccc2c1.O=C(O)/C=C\C(=O)O (stereo unspecified) | 6 | Active | 13 | –
COc1cc(NC(C)CCCN)c2nc(OCc3ccc(Cl)cc3Cl)ccc2c1.O=C(O)/C=C\C(=O)O (stereo unspecified) | 8 | Active | – | Activity (Plasmodium berghei [11]): Active

— ChEMBL document CHEMBL3272111, “Synthesis of 2-benzyloxy and 2-benzylthio analogues of primaquine as potential antimalarials” (1977)
